# Tests used:
# HIV Wild strain (IIIB) = assay: Anti-virus activity IC50 against wild strain; type: cell-based; conditions: Human immunodeficiency virus 1, IIIB, read-out: Anti-virus activity IC50
# [1] = test system: Indinavir resistant strain; assay: Anti-virus activity IC50 against Indinavir resistant strain; type: cell-based, HIV; conditions: Human immunodeficiency virus 1, read-out: Anti-virus activity IC50
# Excerpt: (§1) A drug resistant strain virus is a resistance strains induced in a cell culture system in vitro while maintaining infection in the presence of each medicament through generations.
# [2] = test system: Ritonavir resistant strain; assay: Anti-virus activity IC50 against Ritonavir resistant strain; type: cell-based, HIV; conditions: Human immunodeficiency virus 1, read-out: Anti-virus activity IC50
# [3] = Change of concentration in plasma over time after oral administration to rats (KNI-272 with Indinavir or Nelfinavir); conditions: for AUC: rat, plasma, po
# Method: In this example, the change in concentration in blood of KNI-272 over time when the KNI-272 was orally administered in combination with Indinavir, i.e. the change in the concentration of a non-binding type of drug in plasma over time, was measured to evaluate the effect of drug interactions on fluctuations of dynamics in vivo. A commercially available Indinavir for oral administration, CRIXIVAN™ (manufactured by Merck), was used after dissolving Indinavir sulfate in a prescribed concentration. As KNI-272, a suspension prepared from a fine powder of KNI-272 was used. Rats were used as test animals. […] In addition, each compound was individually administered to control groups to evaluate the dynamics in vivo. The animals were fasted for 16 hours before administration. The measurement of the change in the non-binding drug concentration in plasma over time was carried out according to a conventional method using blood samples collected from the test animals.
# The method of evaluation was applied to the above-mentioned system of Indinavir and KNI-272 was followed. […] In this example, a dosage of 50 mg/kg was selected for both Nelfinavir and KNI-272.
# KNI-272 resistant strain = assay: microbe, parasite or virus in culture; type: cell-based, HIV; conditions: Human immunodeficiency virus 1, read-out: Anti-virus activity IC50
# Excerpt: as §1
# [4] = test system: IIIB strain of HIV-1 in CEM-SS cells; assay: Measurement of anti-HIV activity in vitro (XTT method, control of cellular denaturalization due to HIV infection); type: cell-based
# Method: An increase in the synergistic anti-virus activity in the combined use of KNI-272 and Saquinavir is shown by a specific experimental example. The anti-virus activity was evaluated as the capability of controlling generation of infectious virus particles in vitro. The effect of cell extinction to HIV infection was calculated when Saquinavir methanesulfonate and KNI-272 respectively or both were added to a culture liquid, to determine the concentration region where a synergistic increase in the anti-virus activity in the combined use of the two compounds is conspicuous. Measurement of the anti-virus activity in vitro was carried out according to the following procedure. In the description hereinafter the concentration of methanesulfonate is indicated as the concentration converted into Saquinavir. The concentration of KNI-272 is indicated as the concentration of the compound itself.
# A IIIB strain of HIV-1 was used as an HIV wild strain and CEM-SS cells were used as infected cells in the above-mentioned culture. The amount of HIV sufficient to kill all CEM-SS cells 6 days after inoculation (multiplicy of infection, MOI of 0.01-0.05) was determined and this amount of HIV was added. A 96 well micro-titre plate was used to inoculate 5×10^3 CEM-SS cells per well in this case. At the time of inoculation of cells, a test compound was added to the culture medium to a prescribed concentration. Three specimens were used for each test level. The following controls were used (1) as calorimetric controls: a sample with only a test compound added to the culture medium, (2) as a cytotoxic control for a test compound: a sample with only cells and the test compound added to the culture medium, (3) as a virus control: a sample with the cells inoculated with only a virus, and (4) as a cell survival control, a sample consisting only of cells. In addition, AZT and DDC which are compounds with a known anti-HIV activity were used as positive controls. After the cells were added, they were inoculated with the infecting virus, followed by incubation at 37° C.for 6 days. Cellular denaturalization due to HIV infection was colorimetrically measured for each well. Employing the colorimetry, was the metabolism from XTT Tetrazolium to XTT Formazan was evaluated. This colorimetry is called the XTT method (see Weislow et al., Journal of the National Cancer Institute 81, 577-586 (1989)). After the above-mentioned incubation, a prescribed amount of XTT was added to each well and incubation was continued for a further four hours at 37° C. to measure the amount of XTT Formazan produced by metabolism by means of calorimetric quantitation.
# The anti-HIV activity for each experimental level was calculated by comparing the number of undenatured cells measured by the above-mentioned assay with the corresponding number of cells in the four control groups. Specifically, the proportion of cellular denaturalization due to HIV infection controlled by the addition of the test compound was calculated. A systematic deviation between the several experiments was corrected based on the results of AZT and ddC used as positive controls.
# In this example, 0 ng/ml and several concentrations in the range of 0.625-10.0 ng/ml of Saquinavir methanesulfonate and 0 ng/ml and several concentrations in the range of 0.313-80.0 ng/ml of KNI-272 were used. The results (anti-HIV activities) obtained under these conditions using either one of these medicaments or both medicaments in combination are shown in Table 1.
# With regard to this concentration region wherein no synergistic increase can be seemingly identified, a similar evaluation was carried out adding a larger amount of HIV to qualitatively evaluate the presence or absence of a synergistic effect. […] This affords qualitative results rather than quantitative results.
# An increase in the synergistic anti-virus activity in the combined use of KNI-272 and Ritonavir is shown by a specific experimental example. […]
# [5] = Indinavir 40 mg/kg + KNI-272 40 mg/kg p.o. at the same time
smiles,measurement,setting,value
"CSC[C@H](NC(=O)COc1cccc2cnccc12)C(=O)N[C@@H](Cc1ccccc1)[C@H](O)C(=O)N1CSC[C@H]1C(=O)NC(C)(C)C [KNI-272, (R)-N-1,1-dimethylethyl-3-[(2S,3S)-2-hydroxy-3-[(R)-2-(5-isoquinolyloxyacetyl)amino-3-methylthiopropanoyl]amino-4-phenylbutanoyl]-1,3-thiazolidine-4-carboxyamide]",IC50,HIV Wild strain (IIIB),0.007 µg/mL
same,IC50,[1],0.01 µg/mL
same,IC50,[2],0.304 µg/mL
same,increase in maximum concentration value in blood (Cmax) of KNI-272,[3]; [5],about twice
same,increase in the value of AUC of KNI-272,[3]; [5],about a six-times increase
same,increase in AUC value of KNI-272,[3]; KNI-272 10 mg/kg one hour after Indinavir 90 mg/kg,about 10 times
same,decrease in the maximum concentration value in blood Cmax of KNI-272 (to fraction),[3]; KNI-272 50 mg/kg with Nelfinavir 50 mg/kg vs alone,about ¼
same,increase in the maximum concentration value in blood (Cmax) of KNI-272,[3]; KNI-272 administered one hour after Indinavir,3 times
same,AUC,"[3]; 10 mg/kg, AUC value of KNI-272, KNI-272 10 mg/kg p.o., no Indinavir",660 ng·h/mL
same,AUC,"[3]; 40 mg/kg, AUC value of KNI-272, KNI-272 40 mg/kg p.o. individually",4900 ng·h/mL
same,AUC,"[3]; 40 mg/kg, AUC value of KNI-272, KNI-272 40 mg/kg p.o. together with Indinavir 40 mg/kg",29200 ng·h/mL
same,AUC,"[3]; 50 mg/kg, AUC value for KNI-272, KNI-272 50 mg/kg p.o. only",9170 ng·h/mL
same,AUC,"[3]; 50 mg/kg, AUC value for KNI-272, KNI-272 50 mg/kg p.o. simultaneously with Nelfinavir 50 mg/kg",10300 ng·h/mL
same,AUC,"[3]; AUC value of KNI-272, KNI-272 10 mg/kg p.o. one hour after Indinavir 90 mg/kg",6900 ng·h/mL
same,IC50,KNI-272 resistant strain,0.32 µg/mL
same,Anti-HIV activity (%),[4]; KNI-272 0.313 ng/ml alone (Table 1),4.8%
same,Anti-HIV activity (%),[4]; KNI-272 0.313 ng/ml alone (Table 4),5.6%
same,Anti-HIV activity (%),[4]; KNI-272 0.625 ng/ml alone (Table 1),0.0%
same,Anti-HIV activity (%),[4]; KNI-272 0.625 ng/ml alone (Table 4),2.1%
same,Anti-HIV activity (%),[4]; KNI-272 1.25 ng/ml alone (Table 1),1.2%
same,Anti-HIV activity (%),[4]; KNI-272 1.25 ng/ml alone (Table 4),3.8%
same,Anti-HIV activity (%),[4]; KNI-272 2.5 ng/ml alone (Table 1),11.0%
same,Anti-HIV activity (%),[4]; KNI-272 2.5 ng/ml alone (Table 4),2.2%
same,Anti-HIV activity (%),[4]; KNI-272 5.0 ng/ml alone (Table 1),8.5%
same,Anti-HIV activity (%),[4]; KNI-272 5.0 ng/ml alone (Table 4),0.0%
same,Anti-HIV activity (%),[4]; KNI-272 10.0 ng/ml alone (Table 1),13.1%
same,Anti-HIV activity (%),[4]; KNI-272 10.0 ng/ml alone (Table 4),2.5%
same,Anti-HIV activity (%),[4]; KNI-272 20.0 ng/ml alone (Table 1),15.7%
same,Anti-HIV activity (%),[4]; KNI-272 20.0 ng/ml alone (Table 4),12.8%
same,anti-HIV activity as fraction of that of combined use of 10.0 ng/ml Saquinavir methanesulfonate and 20.0 ng/ml KNI-272,[4]; KNI-272 30.0 ng/ml alone,⅓
same,Anti-HIV activity (%),[4]; KNI-272 40.0 ng/ml alone (Table 1),27.6%
same,Anti-HIV activity (%),[4]; KNI-272 40.0 ng/ml alone (Table 4),42.8%
same,anti-HIV activity as fraction of that of combined use of 20.0 ng/ml Ritonavir and 40.0 ng/ml KNI-272,[4]; KNI-272 60.0 ng/ml alone,about ¾
same,Anti-HIV activity (%),[4]; KNI-272 80.0 ng/ml alone (Table 1),65.7%
same,Anti-HIV activity (%),[4]; KNI-272 80.0 ng/ml alone (Table 4),100.0%
